Here are results for 27 compounds from patent US10058550B2, “Methods of treating heart failure” (priority 2015, dated 2018).

The assay has as its target human APJ receptor (Homo sapiens (Human), UniProt P35414). As to the kind of experiment: biochemical. The assay is classed as biochemical. To be noted: read-out: Activity hAPJ SPA EC50 IP. In short, it runs like this:
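Agonist-stimulated [35S]GTPγS (0.2 nM) binding was read by SPA after 90 min at room temperature. Buffer: 20 mM HEPES pH 7.5 with 5 mM MgCl2, 200 mM NaCl, 3 μM GDP, 0.1% BSA; membranes were from a stable human APJ CHO line. EC50 values are averages of independent runs, fitted by non-linear regression.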

Sequence of human APJ receptor (P35414 whole entry): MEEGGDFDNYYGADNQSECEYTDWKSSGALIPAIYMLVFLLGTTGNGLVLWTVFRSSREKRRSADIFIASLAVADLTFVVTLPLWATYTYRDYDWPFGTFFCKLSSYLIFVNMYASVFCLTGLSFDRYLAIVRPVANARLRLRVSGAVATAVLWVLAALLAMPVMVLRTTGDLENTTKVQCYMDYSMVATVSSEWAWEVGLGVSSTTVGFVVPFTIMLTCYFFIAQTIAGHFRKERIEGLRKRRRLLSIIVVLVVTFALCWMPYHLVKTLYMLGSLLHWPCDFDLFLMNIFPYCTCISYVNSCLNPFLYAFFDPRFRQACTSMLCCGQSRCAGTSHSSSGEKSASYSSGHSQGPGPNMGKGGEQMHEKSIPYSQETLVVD

As a reminder, the EC50 is the concentration that produces a half-maximal response. With `COc1cccc(OC)c1-n1c(NS(=O)(=O)[C@@H](C)[C@H](OC)c2ncc(C)cn2)nnc1-c1cccc(N(C)C)n1` [Example 197.0, (1R,2S)-N-(4-(2,6-dimethoxyphenyl)-5-(6-(dimethylamino)pyridin-2-yl)-4H-1,2,4-triazol-3-yl)-1-methoxy-1-(5-methylpyrimidin-2-yl)propane-2-sulfonamide], the EC50 came to 0.21 nM.
Regarding `COc1cccc(OC)c1-n1c(NS(=O)(=O)[C@@H](C)[C@H](C)c2cnc(C)cn2)nnc1-c1cccnc1` [Example 198.0, (2S,3R)-N-(4-(2,6-dimethoxyphenyl)-5-(pyridin-3-yl)-4H-1,2,4-triazol-3-yl)-3-(5-methylpyrazin-2-yl)butane-2-sulfonamide], the EC50 came out at 1.1 nM.
As for `COc1cccc(-c2nnc(NS(=O)(=O)CCc3ccc(F)cc3C#N)n2-c2c(OC)cccc2OC)n1` [Example 200.0, 2-(2-cyano-4-fluorophenyl)-N-(4-(2,6-dimethoxyphenyl)-5-(6-methoxy-2-pyridinyl)-4H-1,2,4-triazol-3-yl)ethanesulfonamide], the EC50 is 0.57 nM.
As to `COc1cccc(OC)c1-n1c(NS(=O)(=O)CCN2C(=O)N(C)CC[C@@H]2C)nnc1-c1cncc(C)c1` [Example 201.0, N-(4-(2,6-dimethoxyphenyl)-5-(5-methyl-3-pyridinyl)-4H-1,2,4-triazol-3-yl)-2-((6S)-3,6-dimethyl-2-oxotetrahydro-1(2H)-pyrimidinyl)ethanesulfonamide], the 50% effective concentration (EC50) turned out to be 2.5 nM.
Consider `COc1cccc(-c2nnc(NS(=O)(=O)CCc3ccc(F)cc3C#N)n2-c2c(OC)ncnc2OC)n1` [Example 204.0, 2-(2-cyano-4-fluorophenyl)-N-(4-(4,6-dimethoxy-5-pyrimidinyl)-5-(6-methoxy-2-pyridinyl)-4H-1,2,4-triazol-3-yl)ethanesulfonamide], for which the EC50 worked out at 1.5 nM.
For the compound `CCNC(=O)c1cccc(-c2nnc(NS(=O)(=O)[C@@H](C)Cc3ncc(F)cn3)n2-c2c(OC)cccc2OC)n1` [Example 229.0, 6-(4-(2,6-dimethoxyphenyl)-5-((((1S)-2-(5-fluoro-2-pyrimidinyl)-1-methylethyl)sulfonyl)amino)-4H-1,2,4-triazol-3-yl)-N-ethyl-2-pyridinecarboxamide, 6-(4-(2,6-dimethoxyphenyl)-5-((((1R)-2-(5-fluoro-2-pyrimidinyl)-1-methylethyl)sulfonyl)amino)-4H-1,2,4-triazol-3-yl)-N-ethyl-2-pyridinecarboxamide], the EC50 came to 6.3 nM.
With `COc1cccc(OC)c1-n1c(NS(=O)(=O)[C@@H](C)[C@H](OC)c2ncccn2)nnc1-c1cncc(C)c1` [Example 250.0, (1R,2S)-N-(4-(2,6-dimethoxyphenyl)-5-(5-methyl-3-pyridinyl)-4H-1,2,4-triazol-3-yl)-1-methoxy-1-(2-pyrimidinyl)-2-propanesulfonamide], the EC50 was found to be 2.8 nM.
As to `COc1cccc(-c2nnc(NS(=O)(=O)[C@@H](C)[C@H](C)c3ncc(C)cn3)n2-c2c(OC)cccc2OC)n1` [Example 313.0, (2S,3R)—N-(4-(2,6-dimethoxyphenyl)-5-(6-methoxy-2-pyridinyl)-4H-1,2,4-triazol-3-yl)-3-(5-methyl-2-pyrimidinyl)-2-butanesulfonamide], the EC50 is 0.3 nM.
With `COc1cccc(-c2nnc(NS(=O)(=O)[C@H](C)[C@@H](C)c3ncc(C)cn3)n2-c2c(OC)cccc2OC)n1` [Example 314.0, (2R,3S)—N-(4-(2,6-dimethoxyphenyl)-5-(6-methoxy-2-pyridinyl)-4H-1,2,4-triazol-3-yl)-3-(5-methyl-2-pyrimidinyl)-2-butanesulfonamide], the EC50 stood at 3.4 nM.
On to `COc1cccc(OC)c1-n1c(NS(=O)(=O)CCc2ccc(Cl)cc2)nnc1-c1ccccn1` [Example 368.0, 2-(4-chlorophenyl)-N-(4-(2,6-dimethoxyphenyl)-5-(2-pyridinyl)-4H-1,2,4-triazol-3-yl)ethanesulfonamide], for which the EC50 came out at 59 nM.
The figure for `COc1cccc(OC)c1-n1c(NS(=O)(=O)CCc2ccc(Cl)cc2)nnc1-c1cccnc1` [Example 369.0, 2-(4-chlorophenyl)-N-(4-(2,6-dimethoxyphenyl)-5-(3-pyridinyl)-4H-1,2,4-triazol-3-yl)ethanesulfonamide] is 16 nM.
With `COc1cccc(OC)c1-n1c(NS(=O)(=O)N[C@@H](C)c2ncc(F)cn2)nnc1-c1cncc(C)c1` [Example 392.0], the concentration giving a half-maximal response (EC50) was 48 nM.
Take `CCO[C@H](c1ncc(Cl)cn1)[C@H](C)S(=O)(=O)Nc1nnc(-c2cncc(C)c2)n1-c1c(OC)cccc1OC` [Example 429.0, (1R,2S)-1-(5-chloropyrimidin-2-yl)-N-(4-(2,6-dimethoxyphenyl)-5-(5-methylpyridin-3-yl)-4H-1,2,4-triazol-3-yl)-1-ethoxypropane-2-sulfonamide]: the EC50 is 0.27 nM.
Regarding `COc1cccc(OC)c1-n1c(NS(=O)(=O)[C@@H](C)[C@H](C)c2ncc(F)cn2)nnc1-c1cccc(C)n1` [Example 453.0, (2S,3R)—N-(4-(2,6-dimethoxyphenyl)-5-(6-methyl-2-pyridinyl)-4H-1,2,4-triazol-3-yl)-3-(5-fluoro-2-pyrimidinyl)-2-butanesulfonamide], the EC50 is 0.6 nM.
The figure for `COc1cccc(OC)c1-n1c(NS(=O)(=O)[C@@H](C)[C@H](C)c2ncc(F)cn2)nnc1-c1cccc(Cl)n1` [Example 454.0, (2S,3R)—N-(5-(6-chloro-2-pyridinyl)-4-(2,6-dimethoxyphenyl)-4H-1,2,4-triazol-3-yl)-3-(5-fluoro-2-pyrimidinyl)-2-butanesulfonamide] is 0.84 nM; for `COc1cccc(OC)c1-n1c(NS(=O)(=O)[C@@H](C)[C@H](C)c2ncc(F)cn2)nnc1-c1cccc(-c2ccccc2)n1` [Example 455.0, (2S,3R)—N-(4-(2,6-dimethoxyphenyl)-5-(6-phenyl-2-pyridinyl)-4H-1,2,4-triazol-3-yl)-3-(5-fluoro-2-pyrimidinyl)-2-butanesulfonamide] it is 4.9 nM.
Turning to `COc1cccc(OC)c1-n1c(NS(=O)(=O)CCN2C(=O)N(C)CC[C@H]2C)nnc1-c1cncc(C)c1` [Example 460.0, N-(4-(2,6-dimethoxyphenyl)-5-(5-methyl-3-pyridinyl)-4H-1,2,4-triazol-3-yl)-2-((6R)-3,6-dimethyl-2-oxotetrahydro-1(2H)-pyrimidinyl)ethanesulfonamide], the EC50 was 9.7 nM.
Take `COc1cccc(OC)c1-n1c(NS(=O)(=O)CCc2ccc(F)cc2C#N)nnc1-c1cccc(=O)[nH]1` [Example 461.0, 2-(2-cyano-4-fluorophenyl)-N-(4-(2,6-dimethoxyphenyl)-5-(6-oxo-1,6-dihydro-2-pyridinyl)-4H-1,2,4-triazol-3-yl)ethanesulfonamide]: the EC50 came out at 670 nM.
For `COc1cccc(OC)c1-n1c(NS(=O)(=O)/C(C)=C(\C)c2ncc(F)cn2)nnc1-c1cncc(C)c1` [Example 504.0, (2E)-N-(4-(2,6-dimethoxyphenyl)-5-(5-methyl-3-pyridinyl)-4H-1,2,4-triazol-3-yl)-3-(5-fluoro-2-pyrimidinyl)-2-butene-2-sulfonamide], the EC50 came out at 18 nM.
For `COc1cccc(-c2nnc(NS(=O)(=O)/C(C)=C(\C)c3ncc(F)cn3)n2-c2c(OC)cccc2OC)n1` [Example 505.0, (2E)-N-(4-(2,6-dimethoxyphenyl)-5-(6-methoxy-2-pyridinyl)-4H-1,2,4-triazol-3-yl)-3-(5-fluoro-2-pyrimidinyl)-2-butene-2-sulfonamide], the EC50 is 1.9 nM.
To `COc1cccc(OC)c1-n1c(NS(=O)(=O)[C@H](C)[C@@H](C)c2ncc(C)cn2)nnc1-c1cccnc1` [Example 585.0, (2R,3S)—N-(4-(2,6-dimethoxyphenyl)-5-(3-pyridinyl)-4H-1,2,4-triazol-3-yl)-3-(5-methyl-2-pyrimidinyl)-2-butanesulfonamide] belongs 25 nM; to `COc1cccc(OC)c1-n1c(NS(=O)(=O)[C@@H](C)[C@H](OC)c2ncc(Cl)cn2)nnc1-c1cccnc1` [Example 591.0, (1R,2S)-1-(5-chloro-2-pyrimidinyl)-N-(4-(2,6-dimethoxyphenyl)-5-(3-pyridinyl)-4H-1,2,4-triazol-3-yl)-1-methoxy-2-propanesulfonamide], 0.21 nM; to `COc1cccc(OC)c1-n1c(NS(=O)(=O)[C@H](C)[C@@H](OC)c2ncc(Cl)cn2)nnc1-c1cccnc1` [Example 592.0, (1S,2R)-1-(5-chloro-2-pyrimidinyl)-N-(4-(2,6-dimethoxyphenyl)-5-(3-pyridinyl)-4H-1,2,4-triazol-3-yl)-1-methoxy-2-propanesulfonamide], 10 nM.
Consider `CCO[C@H](c1ncc(Cl)cn1)[C@H](C)S(=O)(=O)Nc1nnc(-c2cncc(C)c2)n1-c1c(OC)cccc1OC` [Example 610.0, (1R,2S)-1-(5-chloro-2-pyrimidinyl)-N-(4-(2,6-dimethoxyphenyl)-5-(5-methyl-3-pyridinyl)-4H-1,2,4-triazol-3-yl)-1-ethoxy-2-propanesulfonamide], for which the EC50 was found to be 0.3 nM.
Take `COc1cccc(OC)c1-n1c(NS(=O)(=O)[C@H](C)[C@@H](O)c2cnc(C)cn2)nnc1-c1cccnc1` [Example 614.0, (1S,2R)—N-(4-(2,6-dimethoxyphenyl)-5-(3-pyridinyl)-4H-1,2,4-triazol-3-yl)-1-hydroxy-1-(5-methyl-2-pyrazinyl)-2-propanesulfonamide]: the EC50 came out at 1.7 nM.
In the case of `COc1cccc(OC)c1-n1c(NS(=O)(=O)[C@@H](C)[C@H](O)c2cnc(C)cn2)nnc1-c1cccnc1` [Example 615.0, (1R,2S)—N-(4-(2,6-dimethoxyphenyl)-5-(3-pyridinyl)-4H-1,2,4-triazol-3-yl)-1-hydroxy-1-(5-methyl-2-pyrazinyl)-2-propanesulfonamide], the EC50 is 65 nM.
For the compound `COc1cccc(OC)c1-n1c(NS(=O)(=O)[C@@H](C)[C@H](O)c2ncc(C)cn2)nnc1-c1cccnc1` [Example 616.0, (1R,2S)—N-(4-(2,6-dimethoxyphenyl)-5-(pyridin-3-yl)-4H-1,2,4-triazol-3-yl)-1-hydroxy-1-(5-methylpyrimidin-2-yl)propane-2-sulfonamide], the EC50 came to 0.46 nM.
